The assay concerns the target T1, JAK3 (Homo sapiens, UniProt P52333).
T1 construct: The Ramos B-cell line was acquired from ATCC (ATCC Catalog No. CRL-1596); host or cells: Ramos B-cell line (human)
T1 sequence (P52333 1-1124): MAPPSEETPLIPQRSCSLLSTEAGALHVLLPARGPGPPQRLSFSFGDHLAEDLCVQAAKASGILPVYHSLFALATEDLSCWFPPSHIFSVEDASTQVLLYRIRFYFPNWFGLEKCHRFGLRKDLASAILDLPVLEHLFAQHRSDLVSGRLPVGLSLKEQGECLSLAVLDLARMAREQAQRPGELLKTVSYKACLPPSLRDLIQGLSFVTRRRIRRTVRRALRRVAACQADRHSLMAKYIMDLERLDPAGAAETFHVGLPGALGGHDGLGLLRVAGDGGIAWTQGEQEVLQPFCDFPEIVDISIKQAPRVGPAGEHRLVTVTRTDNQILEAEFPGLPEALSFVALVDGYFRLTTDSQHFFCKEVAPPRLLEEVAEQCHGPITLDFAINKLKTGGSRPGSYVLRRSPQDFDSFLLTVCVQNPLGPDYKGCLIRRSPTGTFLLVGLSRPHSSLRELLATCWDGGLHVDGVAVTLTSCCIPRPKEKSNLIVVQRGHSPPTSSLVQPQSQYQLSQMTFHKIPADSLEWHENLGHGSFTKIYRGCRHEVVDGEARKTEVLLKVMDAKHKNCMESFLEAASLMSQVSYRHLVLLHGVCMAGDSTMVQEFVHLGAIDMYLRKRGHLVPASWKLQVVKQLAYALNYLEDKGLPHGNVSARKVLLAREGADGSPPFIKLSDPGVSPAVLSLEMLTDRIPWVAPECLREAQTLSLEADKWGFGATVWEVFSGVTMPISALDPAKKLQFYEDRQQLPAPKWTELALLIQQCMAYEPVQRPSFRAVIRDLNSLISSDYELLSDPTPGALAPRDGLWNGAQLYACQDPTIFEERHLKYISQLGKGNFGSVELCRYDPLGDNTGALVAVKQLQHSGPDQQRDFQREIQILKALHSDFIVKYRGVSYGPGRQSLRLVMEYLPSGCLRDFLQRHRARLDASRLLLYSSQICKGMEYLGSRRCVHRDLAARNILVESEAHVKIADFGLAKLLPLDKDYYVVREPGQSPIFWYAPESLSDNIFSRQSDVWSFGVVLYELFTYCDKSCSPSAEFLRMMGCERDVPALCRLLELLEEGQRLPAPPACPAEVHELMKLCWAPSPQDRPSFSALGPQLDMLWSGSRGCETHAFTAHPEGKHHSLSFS
In words: Assay for CD23 expression on Ramos B-cells stimulated by IL-4 (Table IV: ability to inhibit JAK3 activity). In kind it is cell-based. Conditions: tested under conditions described in Example 3 (so in the source). Put shortly:
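Human Ramos B cells in RPMI with 5% serum, pre-incubated 1 h at 37 °C with compound or DMSO, then stimulated with IL-4 (final 50 units/mL) for 20–24 h. Surface CD23 upregulation measured by FACS staining as readout of JAK1/JAK3–Stat-6 signalling.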

Structures can show the parent of a compound that is named as a salt.

Broadly, the IC50 is the concentration that gives 50% inhibition. A low value points to greater potency in that assay.

For `Cc1cc(Nc2ncc([N+](=O)[O-])c(Nc3ccc4oc(=O)[nH]c4c3)n2)cc(C)c1C` [Compound I-42, 5-(5-nitro-2-(3,4,5-trimethylphenylamino)pyrimidin-4-ylamino)benzo[d]oxazol-2(3H)-one trifluoroacetate salt], the 50% inhibitory concentration (IC50) was above 10000 nM. The result for `O=c1[nH]c2cc(Nc3nc(Nc4ccc(C(F)(F)F)cc4)ncc3Cl)ccc2o1` [Compound I-15, 5-(5-chloro-2-(4-(trifluoromethyl)phenylamino)pyrimidin-4-ylamino)benzo[d]oxazol-2(3H)-one trifluoroacetate salt] reads below 500 nM.

`O=c1[nH]c2cc(Nc3nc(Nc4cc(F)cc(Cl)c4)ncc3Cl)ccc2o1` [Compound I-8, 5-(5-chloro-2-(3-chloro-5-fluorophenylamino)pyrimidin-4-ylamino)benzo[d]oxazol-2(3H)-one formate salt] had a half-inhibitory concentration (IC50) below 500 nM.

Turning to `Cc1ccc(Nc2ncc(C)c(Nc3ccc4oc(=O)[nH]c4c3)n2)cc1N(C)C` [Compound I-17, 5-[2-(3-Dimethylamino-4-methyl-phenylamino)-5-methyl-pyrimidin-4-ylamino]-3H-benzooxazol-2-one], the IC50 is below 500 nM. Turning to `COc1cc(Nc2ncc(F)c(Nc3cc(C)c4oc(=O)[nH]c4c3)n2)cc(C)c1F` [Compound I-190, 5-(2-(4-fluoro-3-methoxy-5-methylphenylamino)-5-fluoropyrimidin-4-ylamino)-7-methylbenzo[d]oxazol-2(3H)-one trifluoroacetate salt], the IC50 was 500 to 5000 nM. Next, `COc1cc(Nc2ncc(F)c(Nc3ccc4oc(=O)[nH]c4c3)n2)cc(C)c1C` [Compound I-195, 5-(2-(3-methoxy-4,5-dimethylphenylamino)-5-fluoropyrimidin-4-ylamino)benzo[d]oxazol-2(3H)-one trifluoroacetate salt]: below 500 nM; `Cc1ccc(Nc2ncc([N+](=O)[O-])c(Nc3ccc4oc(=O)[nH]c4c3)n2)cc1N(C)C` [Compound I-45, 5-(2-(3-(dimethylamino)-4-methylphenylamino)-5-nitropyrimidin-4-ylamino)benzo[d]oxazol-2(3H)-one trifluoroacetate salt]: above 10000 nM; `COCCOc1c(C)ccc(Nc2ncc(F)c(Nc3ccc4oc(=O)[nH]c4c3)n2)c1F` [Compound I-61, 5-(5-fluoro-2-(2-fluoro-3-(2-methoxyethoxy)-4-methylphenylamino)pyrimidin-4-ylamino)benzo[d]oxazol-2(3H)-one trifluoroacetate salt]: below 500 nM.

In turn, `O=C(NC1CC1)c1ccc(Nc2ncc(F)c(Nc3ccc4oc(=O)[nH]c4c3)n2)cc1C(F)(F)F` [Compound I-165, N-cyclopropyl-4-(5-fluoro-4-(2-oxo-2,3-dihydrobenzo[d]oxazol-5-ylamino)pyrimidin-2-ylamino)-2-(trifluoromethyl)benzamide formate salt] came in with a concentration for half-maximal inhibition (IC50) below 500 nM.

With `CS(=O)(=O)c1cc(Nc2ncc(F)c(Nc3ccc4oc(=O)[nH]c4c3)n2)ccc1F` [Compound I-168, 5-(2-(4-fluoro-3-(methylsulfonyl)phenylamino)-5-fluoropyrimidin-4-ylamino)benzo[d]oxazol-2(3H)-one trifluoroacetate salt], the IC50 was below 500 nM. In turn, `Cc1ccc(Nc2ncc(F)c(Nc3ccc4oc(=O)[nH]c4c3)n2)cc1S(C)(=O)=O` [Compound I-167, 5-(2-(4-methyl-3-(methylsulfonyl)phenylamino)-5-fluoropyrimidin-4-ylamino)benzo[d]oxazol-2(3H)-one trifluoroacetate salt] displayed an IC50 below 500 nM.

In turn, `CCOc1ccc(Nc2ncc(C)c(Nc3ccc4oc(=O)[nH]c4c3)n2)c(F)c1OCC` [Compound I-101, 5-(2-(3,4-diethoxy-2-fluorophenylamino)-5-methylpyrimidin-4-ylamino)benzo[d]oxazol-2(3H)-one] gave a half-maximal inhibitory concentration (IC50) below 500 nM. The result for `NS(=O)(=O)c1cccc(Nc2ncc(F)c(Nc3cc(F)c4oc(=O)[nH]c4c3)n2)c1` [Compound I-174, 3-(5-fluoro-4-(7-fluoro-2-oxo-2,3-dihydrobenzo[d]oxazol-5-ylamino)pyrimidin-2-ylamino)benzenesulfonamide trifluoroacetate salt] reads below 500 nM. The compound `COC(=O)c1cnc(Nc2cc(C)c(C)c(C)c2)nc1Nc1ccc2oc(=O)[nH]c2c1` [Compound I-40, 4-(2-Oxo-2,3-dihydro-benzooxazol-5-ylamino)-2-(3,4,5-trimethyl-phenylamino)-pyrimidine-5-carboxylic acid methyl ester trifluoroacetate salt] registered a half-inhibitory concentration (IC50) below 500 nM. Next, `Cc1cnc(Nc2ccc(CC=O)cc2)nc1Nc1ccc2oc(=O)[nH]c2c1` [Compound I-30, {4-[5-Methyl-4-(2-oxo-2,3-dihydro-benzooxazol-5-ylamino)-pyrimidin-2-ylamino]-phenyl}-acetaldehyde]: below 500 nM; `COc1ccc(Nc2ncc(Cl)c(Nc3ccc4oc(=O)[nH]c4c3)n2)c(F)c1OC` [Compound I-51, 5-(5-chloro-2-(2-fluoro-3,4-dimethoxyphenylamino)pyrimidin-4-ylamino)benzo[d]oxazol-2(3H)-one trifluoroacetate salt]: below 500 nM; `Cc1cc(Nc2ncc(CN3CCCCC3)c(Nc3ccc4oc(=O)[nH]c4c3)n2)cc(C)c1C` [Compound I-99, 5-(2-(3,4,5-trimethylphenylamino)-5-((piperidin-1-yl)methyl)pyrimidin-4-ylamino)benzo[d]oxazol-2(3H)-one]: above 10000 nM. The result for `Cc1cnc(Nc2cc(C)c(F)c(C)c2)nc1Nc1ccc2oc(=O)[nH]c2c1` [Compound I-146, N2-(3,5-dimethyl-4-fluoro)phenyl-5-methyl-N4-(2-oxo-2,3-dihydro-1,3-benzoxazol-5-yl)-2,4-pyrimidinediamine benzenesulfonic acid salt] reads below 500 nM. The result for `COc1cc(Nc2ncc(Cl)c(Nc3ccc4oc(=O)[nH]c4c3)n2)cc(C)c1C` [Compound I-52, 5-(5-chloro-2-(3-methoxy-4,5-dimethylphenylamino)pyrimidin-4-ylamino)benzo[d]oxazol-2(3H)-one] reads below 500 nM. In the case of `COc1cc(Nc2ncc(F)c(Nc3ccc4oc(=O)[nH]c4c3)n2)c(F)cc1C` [Compound I-123, 5-(5-fluoro-2-(2-fluoro-5-methoxy-4-methylphenylamino)pyrimidin-4-ylamino)benzo[d]oxazol-2(3H)-one trifluoroacetate salt], the concentration for half-maximal inhibition (IC50) was 5000 to 10000 nM. In the case of `COc1cccc(Nc2ncc(F)c(Nc3ccc4oc(=O)[nH]c4c3)n2)c1F` [Compound I-20, 5-(5-fluoro-2-(2-fluoro-3-methoxyphenylamino)pyrimidin-4-ylamino)benzo[d]oxazol-2(3H)-one trifluoroacetate salt], the IC50 is 500 to 5000 nM. Compound `Cc1cc(Nc2ncc(C(=O)O)c(Nc3ccc4oc(=O)[nH]c4c3)n2)cc(C)c1C` [Compound I-49, 4-(2-Oxo-2,3-dihydro-benzooxazol-5-ylamino)-2-(3,4,5-trimethyl-phenylamino)-pyrimidine-5-carboxylic acid trifluoroacetate salt] yielded an IC50 above 10000 nM. For `COc1cc(Nc2ncc(F)c(Nc3ccc4oc(=O)[nH]c4c3)n2)cc(C(F)(F)F)c1` [Compound I-211, 5-fluoro-N2-(3-methoxy-5-trifluoromethyl)phenyl-N4-(2-oxo-2,3-dihydro-1,3-benzoxazol-5-yl)-2,4-pyrimidinediamine], the half-maximal inhibitory concentration (IC50) was below 500 nM.

As for `COC(=O)c1cnc(Nc2cc(C)c(C)c(OC)c2)nc1Nc1ccc2oc(=O)[nH]c2c1` [Compound I-59, 2-(3-Methoxy-4,5-dimethyl-phenylamino)-4-(2-oxo-2,3-dihydro-benzooxazol-5-ylamino)-pyrimidine-5-carboxylic acid methyl ester trifluoroacetate salt], the half-maximal inhibitory concentration (IC50) was above 10000 nM. The result for `O=C1CCc2cc(Nc3ncc(F)c(Nc4ccc5oc(=O)[nH]c5c4)n3)ccc2N1` [II-26, 6-(4-(2,3-dihydro-2-oxobenzo[d]oxazol-5-ylamino)-5-fluoropyrimidin-2-ylamino)-3,4-dihydroquinolin-2(1H)-one trifluoroacetate salt] reads below 500 nM.
